Assay results published in US6362369B1, “Phthalic acid diamide derivatives fluorine-containing aniline compounds as starting material, agricultural and horticultural insecticides, and a method for application of the insecticides” (Nihon Nohyaku Co., Ltd., priority 1997, dated 2002).

What follows are molecules tested on rice leafroller (Cnaphalocrocis medinalis) (assay: Insecticidal effect on rice leafroller (Test Example 3)). Settings: 500 ppm, rice lamina dip, third-instar larvae of rice leafroller, 4 days after inoculation, 25° C., humidity 70%.
Assay type: in vivo
Experimental: Insecticidal effect on rice leafroller (Cnaphalocrocis medinalis)
After air-drying, the lamina was placed in a plastic Petri dish with a diameter of 9 cm whose bottom had been covered with a wetted filter paper. The lamina was inoculated with third-instar larvae of rice leafroller, after which the dish was allowed to stand in a room thermostated at 25° C. and having a humidity of 70%. Four days after the inoculation, the dead and alive were counted and the insecticidal effect was judged according to the criterion shown in Test Example 1. The test was carried out with triplicate groups of 10 insects.

| SMILES | Insecticidal effect (Test Example 3), judged from mortality |
| --- | --- |
| Cc1cc(C(F)(F)C(F)(F)F)c(C)cc1NC(=O)c1cccc(I)c1C(=O)NC(C)C [compound 1655] | A (100) |

Same assay, conditions: 500 ppm, rice lamina dip, third-instar larvae, four days after inoculation, 25° C., humidity 70%

| SMILES | Insecticidal effect on rice leafroller (Test Example 3), judged grade |
| --- | --- |
| Cc1cc(Cl)ccc1NC(=O)c1cccc(C(F)(F)F)c1C(=O)NC(C)C [compound 758] | A (100) |
| CCCCc1ccc(NC(=O)c2cccc([N+](=O)[O-])c2C(=O)NC(C)C)cc1 [compound 605] | C (89-80) |
| Cc1c(Cl)cccc1NC(=O)c1c(C(=O)NC(C)C)cccc1C(F)(F)F [compound 765] | A (100) |
| Cc1cc(SC(F)(F)C(F)(F)F)ccc1NC(=O)c1c(I)cccc1C(=O)NC(C)C [compound 910] | A (100) |

Same assay, conditions: 500 ppm; rice lamina immersed; third-instar larvae of rice leafroller; four days after inoculation; 25° C., humidity 70%

| SMILES | Insecticidal effect, Test Example 3 |
| --- | --- |
| CC(C)NC(=O)c1cccc(I)c1C(=O)Nc1ccc(OC(F)(F)F)cc1 [compound 418] | A (100) |

Same assay, conditions: rice leafroller third-instar larvae; rice lamina immersed, 500 ppm; four days after inoculation; 25° C., humidity 70%

| SMILES | Insecticidal effect, Test Example 3 |
| --- | --- |
| Cc1cc(C(F)(F)C(F)(F)F)ccc1NC(=O)c1c(Cl)cccc1C(=O)NCc1ccccc1Cl [compound 1310] | B (99-90) |
| Cc1cc(C(F)(F)C(F)(F)F)ccc1NC(=O)c1c(Cl)cccc1C(=O)NCCc1ccc(Cl)cc1 [compound 1361] | A (100) |
| Cc1cc(C(F)(F)C(F)(F)F)ccc1NC(=O)c1c(Cl)cccc1C(=O)NC(CO)c1ccc(Cl)cc1 (centres unmarked) [compound 1416] | A (100) |
| Cc1cc(C(F)(F)C(F)(F)F)ccc1NC(=O)c1c(Cl)cccc1C(=O)NCc1ccccc1 [compound 1308] | C (89-80) |
| CCN(CC)C(=O)c1cccc([N+](=O)[O-])c1C(=O)Nc1ccc(Cl)cc1C [compound 1138] | A (100) |
| Cc1cc(C#CC(C)(C)C)ccc1NC(=O)c1c(I)cccc1C(=O)NC(C)C [compound 1306] | A (100) |

These molecules were tested on diamondback moth (Plutella xylostella) (assay: Insecticidal effect on diamondback moth (Test Example 1)). Settings: diamondback moth; judged by the criterion of Test Example 1.
Assay type: in vivo
Method in brief: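 Chinese cabbage seedlings carrying eggs laid by released adult moths were immersed in treatment, air-dried and held at 25° C. Hatched insects were counted six days after immersion, and mortality was calculated and scored against a fixed criterion. Three replicate groups of 10 insects were used.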

| SMILES | Insecticidal effect (Test Example 1), judged from mortality |
| --- | --- |
| Cc1cc(C(F)(F)C(F)(F)F)ccc1NC(=O)c1c(Cl)cccc1C(=O)N[C@@H](C)CO [compound 1446] | A (100) |
| CCOc1cc(C(F)(C(F)(F)F)C(F)(F)F)ccc1NC(=O)c1cccc(I)c1C(=O)NC(C)(C)C [compound 1694] | A (100) |
| Cc1cc(C(F)(F)C(F)(F)F)ccc1NC(=O)c1cccc(Cl)c1C(=O)NCC(O)c1ccccc1 (centres unmarked) [compound 1476] | A (100) |
| CC(C)c1cc(C(F)(C(F)(F)F)C(F)(F)F)ccc1NC(=O)c1cccc(I)c1C(=O)NC(C)(C)C [compound 1692] | A (100) |
| Cc1cc(C(F)(C(F)(F)F)C(F)(F)F)ccc1NC(=O)c1cccc([S+]([O-])C(F)(F)F)c1C(=O)NC(C)C (centres unmarked) [compound 1805] | A (100) |
| Cc1cc(-c2ccc(OC(F)(F)F)cc2)ccc1NC(=O)c1cccc(I)c1C(=O)NC(C)C [compound 1521] | A (100) |
| Cc1cc(C(F)(F)C(F)(F)F)ccc1NC(=O)c1c(Cl)cccc1C(=O)NCc1ccccc1F [compound 1469] | A (100) |
| CC(C)NC(=O)c1c(I)cccc1C(=O)Nc1cccc(-c2csc(C(F)(F)F)n2)c1 [compound 1658] | A (100) |
| CCCNC(=O)c1cccc(F)c1C(=O)Nc1ccc(C(F)(F)C(F)(F)F)cc1F [compound 1513] | A (100) |
| CC(C)(C)NC(=O)c1c(I)cccc1C(=O)Nc1ccc2oc(C(F)(F)F)nc2c1Cl [compound 1683] | A (100) |

Same assay, conditions: diamondback moth; judged by the mortality criterion of Test Example 1

| SMILES | Insecticidal effect, Test Example 1 |
| --- | --- |
| Cc1cc(Oc2cccc(C(F)(F)F)c2)ccc1NC(=O)c1ccccc1C(=O)NC(C)C [compound 74] | A (100) |
| Cc1cc(OC(C)C)ccc1NC(=O)c1c(I)cccc1C(=O)NC(C)C [compound 442] | A (100) |
| CCc1cc(Cl)ccc1NC(=O)c1c(Br)cccc1C(=O)NC(C)C [compound 310] | A (100) |
| CC(C)NC(=O)c1cc(Cl)ccc1C(=O)Nc1cccc(Cl)c1Cl [compound 175] | A (100) |
| CCCCc1ccc(NC(=O)c2c(Cl)cccc2C(=O)NC(C)C)cc1 [compound 195] | A (100) |

Same assay, conditions: diamondback moth; mortality judged by criterion of Test Example 1

| SMILES | Insecticidal effect, Test Example 1 |
| --- | --- |
| Cc1cc(OC(F)F)ccc1NC(=O)c1cccc(Cl)c1C(=O)NCc1ccccc1 [compound 1421] | A (100) |
| Cc1cc(OC(F)F)ccc1NC(=O)c1cccc(I)c1C(=O)N(C)Cc1ccccc1 [compound 1440] | A (100) |
| Cc1cc(C(F)(F)C(F)(F)F)ccc1NC(=O)c1cccc(Cl)c1C(=O)N[C@@H](CO)c1ccccc1 [compound 1442] | A (100) |
| COc1cccc(CNC(=O)c2c(Cl)cccc2C(=O)Nc2ccc(C(F)(F)C(F)(F)F)cc2C)c1 [compound 1345] | A (100) |
| COc1ccc(CNC(=O)c2cccc(Cl)c2C(=O)Nc2ccc(C(F)(F)C(F)(F)F)cc2C)cc1 [compound 1348] | A (100) |
| Cc1cc(C(F)(F)C(F)(F)F)ccc1NC(=O)c1c(I)cccc1C(=O)NCC(C)C [compound 1006] | A (100) |
| Cc1ccc(CNC(=O)c2c(Cl)cccc2C(=O)Nc2ccc(C(F)(F)C(F)(F)F)cc2C)cc1 [compound 1341] | A (100) |
| Cc1cc(C(F)(F)C(F)(F)F)ccc1NC(=O)c1c(I)cccc1C(=O)NC1CC1 [compound 1025] | A (100) |
| CC(C)(C)NC(=O)c1c(I)cccc1C(=O)Nc1ccc2nc(C(F)(F)C(F)(F)F)oc2c1 [compound 1181] | A (100) |
| Cc1cc(OC(F)F)ccc1NC(=O)c1cccc(Cl)c1C(=O)NCc1ccccc1Cl [compound 1423] | A (100) |
| CCCONC(=O)c1c(Cl)cccc1C(=O)Nc1ccc(C(F)(F)C(F)(F)F)cc1C [compound 1327] | A (100) |
| Cc1cc(C(F)(F)C(F)(F)F)ccc1NC(=O)c1c(Cl)cccc1C(=O)NCc1ccncc1 [compound 1395] | A (100) |
| Cc1cc(C(F)(F)C(F)(F)F)ccc1NC(=O)c1ccccc1C(=O)NCC(O)Cc1ccccc1 (centres unmarked) [compound 1398] | A (100) |
| Cc1cc(C(F)(F)C(F)(F)F)ccc1NC(=O)c1cccc(Cl)c1C(=O)NCCOc1ccc(Cl)cc1 [compound 1372] | A (100) |

Same assay, conditions: mortality judged according to the criterion shown in Test Example 1

| SMILES | Insecticidal effect on diamondback moth (Test Example 1), judged grade |
| --- | --- |
| C=CCNC(=O)c1c(C(=O)Nc2cc(Cl)ccc2C)cccc1[N+](=O)[O-] [compound 866] | D (79-50) |
| CC(C)NC(=O)c1c(F)cccc1C(=O)Nc1cc(Cl)c(OC(F)F)c(Cl)c1 [compound 506] | A (100) |
| Cc1cc(OC(F)F)ccc1NC(=O)c1cccc([N+](=O)[O-])c1C(=O)NCC(C)C [compound 832] | A (100) |
| CC(C)NC(=O)c1c(C(=O)Nc2ccc(Cl)c(C(F)(F)F)c2)cccc1[N+](=O)[O-] [compound 678] | A (100) |
| CC(C)NC(=O)c1cccc(Cl)c1C(=O)Nc1ccc(C=C(Cl)C(F)(F)F)cc1 [compound 912] | A (100) |
| COc1cccc(NC(=O)c2cccc([N+](=O)[O-])c2C(=O)NC(C)C)c1 [compound 613] | A (100) |
| Cc1cc(C(F)(F)F)ccc1NC(=O)c1c(C(=O)NC(C)C)cccc1[N+](=O)[O-] [compound 742] | A (100) |
| CCc1ccc(Cl)c(CC)c1NC(=O)c1cccc(Cl)c1C(=O)NC(C)C [compound 924] | A (100) |
| CCc1cc(I)ccc1NC(=O)c1c(I)cccc1C(=O)NC(C)C [compound 920] | A (100) |
| Cc1ccc(F)cc1NC(=O)c1cccc([N+](=O)[O-])c1C(=O)NCC1CC1 [compound 860] | A (100) |
| CC(C)NC(=O)c1cccc(F)c1C(=O)Nc1ccc(SC(F)(F)C(F)F)cc1 [compound 540] | A (100) |
| C=CCNC(=O)c1ccccc1C(=O)Nc1ccc(C(F)(F)F)cc1 [compound 865] | A (100) |
| CC(C)NC(=O)c1c(C(=O)Nc2ccc(C#N)cc2)cccc1[N+](=O)[O-] [compound 598] | A (100) |
| CC(C)NC(=O)c1cccc(F)c1C(=O)Nc1ccc(OC(F)(F)F)cc1 [compound 537] | A (100) |
| CC(C)NC(=O)c1cccc(F)c1C(=O)Nc1ccc(SCC(F)(F)F)cc1 [compound 539] | A (100) |
| CC(C)NC(=O)c1c(C(=O)Nc2cccc(Cl)c2)cccc1[N+](=O)[O-] [compound 587] | A (100) |
| O=C(Nc1ccc(C(F)(F)F)cc1)c1ccccc1C(=O)NC1CC1 [compound 848] | A (100) |
| CC(C)NC(=O)c1c(C(=O)Nc2ccc(F)cc2F)cccc1[N+](=O)[O-] [compound 639] | A (100) |
